Earlier results, collected in US20130209380A1, “MOISTURIZING COMPOSITION WITH SPF 30” (GALDERMA S.A., priority 2010, published 2013).

Test system: stratum corneum
Details: In vitro human skin model

affinity and diffusion into the stratum corneum: good
SMILES: CCCCCCCCCCCCCCC[C@@H](O)[C@H](CO)NC(=O)C(O)CCCCCCCCCCCCCC (some centres unmarked) [pseudo ceramide 5, N-(2-hydroxyhexadecanoyl)sphinganine]
effect on synthesis of ceramides 1-2-3: induction synthesis of ceramides 1-2-3
